Experimental data taken from US12404232B2, “Compounds and compositions for intracellular delivery of therapeutic agents” (ModernaTX, Inc., priority 2015, dated 2025).

Key:
[1] = test system: mice; experiment: Cytokine induction (IL-6, IP-10) in mice after intravenous administration; format: in vivo; set-up: IL-6 / IP-10: unit not given here; conditions: 0.5 mpk, 6 hours
Description: The introduction of foreign material into a mammalian body induces an innate immune response that promotes cytokine production. Such immune responses to, for example, nanoparticle compositions including therapeutic and/or prophylactics, are undesirable. The induction of certain cytokines is thus measured to evaluate the […] of nanoparticle compositions. The concentrations of various cytokines in mice upon intravenous administration of nanoparticle compositions presented in Table 1A at a dosage of 0.5 mpk was measured at 6 hours. The standard MC3 formulation and a PBS control were also tested. As is evident in Table 7, IL-6 induction was highest for compositions including Compounds 1, 3, 9, 19, and 26, while IP-10 induction was highest for compositions including Compounds 3, 4, 7, 20, and 26. IL-6 induction was lowest for compositions including Compounds 4, 11, 12, and 28. IP-10 induction was lowest for compositions including Compounds 10, 11, 12, 13, 15, 17, and 18.
The expression of hEPO and cytokine induction in mice intravenously administered a nanoparticle composition at a dose of 0.5 mpk were measured at 3, 6, and 24 hours. […] The expression of hEPO in mice intramuscularly administered a nanoparticle composition from Table 1B at a dose of 0.01 mpk were measured at 3, 6, and 24 hours. […] (see also FIG. 9.)

[2] = test system: mice; experiment: Luc expression (total flux) after intramuscular administration; format: in vivo; conditions: 6 hours after intramuscular administration, Luc mRNA and H10 mRNA
Procedure: The numbers 1-7 in this figure correspond to MC3, Compounds 168-170, and 173-175 respectively.
In order to monitor how effectively various nanoparticle compositions deliver therapeutic and/or prophylactics to targeted cells, different nanoparticle compositions including a particular therapeutic and/or prophylactic (for example, a modified or naturally occurring RNA such as an mRNA) are prepared and administered to rodent populations. Mice are intravenously, intramuscularly, intraarterially, or intratumorally administered a single dose including a nanoparticle composition with a formulation such as those provided in Example 3. In some instances, mice may be made to inhale doses. Dose sizes may range from 0.001 mg/kg to 10 mg/kg, where 10 mg/kg describes a dose including 10 mg of a therapeutic and/or prophylactic in a nanoparticle composition for each 1 kg of body mass of the mouse. A control composition including PBS may also be employed.
The total flux (measured by area under the curve, AUC) induced by administration of a formulation including a given lipid relative to that induced by administration of a formulation including MC3 was also measured for several lipids.
Sample formulations including both modified luciferase (Luc) mRNA and H10 mRNA were prepared and administered intramuscularly and the resulting expression and immunogenicity were evaluated simultaneously. Formulations including compounds according to Formula (I), (IA), (II), (IIa), (IIb), (IIc), (IId) or (IIe) were prepared and administered at doses of 0.001 and 0.01 mpk (e.g., doses of 0.0005 mpk of a formulation including Luc mRNA and a formulation including H10 mRNA or doses of 0.005 mpk of a formulation including Luc mRNA and a formulation including H10 mRNA).
Sample formulations including modified luciferase (Luc) mRNA prepared and administered intramuscularly and the resulting expression and immunogenicity were evaluated simultaneously. Formulations including compounds according to Formula (I), (IA), (II), (IIa), (IIb), (IIc), (IId) or (IIe) were prepared and administered at dose of […] 0.01 mpk.
The fluxes measured upon intravenous and intramuscular administration are compared in Table 6. Fluxes are presented as fold increase over that measured for MC3 formulations.

[3] = Particle size and polydispersity index of nanoparticle compositions (Zetasizer Nano ZS); format: physicochemical
Description: Nanoparticle compositions may be characterized by a variety of methods. For example, microscopy (e.g., transmission electron microscopy or scanning electron microscopy) may be used to examine the morphology and size distribution of a nanoparticle composition. Dynamic light scattering or potentiometry (e.g., potentiometric titrations) may be used to measure zeta potentials. Dynamic light scattering may also be utilized to determine particle sizes. Instruments such as the Zetasizer Nano ZS (Malvern Instruments Ltd, Malvern, Worcestershire, UK) may also be used to measure multiple characteristics of a nanoparticle composition, such as particle size, polydispersity index, and zeta potential.
A Zetasizer Nano ZS (Malvern Instruments Ltd, Malvern, Worcestershire, UK) can be used to determine the particle size, the polydispersity index (PDI) and the zeta potential of the nanoparticle compositions in 1×PBS in determining particle size and 15 mM PBS in determining zeta potential.
Initial studies were performed to compare the delivery efficiency of nanoparticle compositions including various compounds according to Formula (I), (IA), (II), (IIa), (IIb), (IIc), (IId) or (IIe). The cationic lipid MC3 is a current standard in the art. Accordingly, the standard MC3 formulation including about 50 mol % MC3, about 10 mol % DSPC, about 38.5 mol % cholesterol, and about 1.5 mol % PEG-DMG was used as a basis for this study. Nanoparticle compositions including DSPC as a phospholipid, cholesterol as a structural lipid, PEG-DMG as a PEG lipid, an RNA, and a compound according to Formula (I), (IA), (II), (IIa), (IIb), (IIc), (IId) or (IIe) selected from Compounds 1-159, 168-170, and 173-175 were prepared according to or via methods similar to those described in Examples 1 and 2. The ratios of the lipids were 50:10:38.5:1.5 mol % for the lipid according to Formula (I), (IA), (II), (IIa), (IIb), (IIc), (IId) or (IIe):DSPC:cholesterol:PEG-DMG. The RNA used was an mRNA encoding G5 luciferase (Luc) or G5 hEPO. Tables 1A-1B summarize the content and characteristics of the formulations. […]

Row | IL-6 [1] | PDI ([3]; nanoparticle composition 50:10:38.5:1.5 mol % (Table 1A)) | Size (nm) ([3]; nanoparticle composition lipid:DSPC:cholesterol:PEG-DMG 50:10:38.5:1.5 mol %, mRNA encoding Luc or hEPO (Table 1A)) | IP-10 [1] | SMILES | Total flux (p/s) 0.001 mpk Dose [2] | Total flux (p/s) 0.01 mpk Dose [2]
1 | 116.35 | – | – | – | CCCCCCCCCN(CCCO)CCCCCCCC(=O)OC(CCCCCCCC)CCCCCCCC [Compound 7, Heptadecan-9-yl 8-((3-hydroxypropyl)(nonyl)amino)octanoate] | 3.65E+06 p/s | 7.48E+07 p/s
2 | 70.95 | – | – | 468.86 | CCCCCCCCCCCCCCN(CCO)CCCCCCCC(=O)OC(CCCCCCCC)CCCCCCCC [Compound 2, Heptadecan-9-yl 8-((2-hydroxyethyl)(tetradecyl)amino)octanoate] | 3.55E+06 p/s | 6.16E+07 p/s
3 | 282.82 | – | – | 187.83 | CCCCCCCC/C=C\COC(=O)CCCCCN(CCO)CCCCCC(=O)OC/C=C\CCCCCCCC [Compound 140, Di((Z)-undec-2-en-1-yl) 6,6′-((2-hydroxyethyl)azanediyl)dihexanoate] | 2.03E+05 p/s | 6.09E+05 p/s
4 | 69.54 | – | – | 1362.81 | CCCCCCCCC(CCCCCCCC)OC(=O)CCCCCCCN(CCO)CCCCCCCC(=O)OC(CCCCCCCC)CCCCCCCC [Compound 29, Di(heptadecan-9-yl) 8,8′-((2-hydroxyethyl)azanediyl)dioctanoate] | 7.64E+05 p/s | 1.12E+07 p/s
5 | 94.00 | – | – | 1015.95 | CCCCCCCCCOC(=O)CCCCCCCN(CCO)CCCCCCCCCC(=O)OC(CCCCCCCC)CCCCCCCC [Compound 23, Heptadecan-9-yl 10-((2-hydroxyethyl)(8-(nonyloxy)-8-oxooctyl)amino) decanoate] | 8.27E+06 p/s | 2.20E+06 p/s
6 | 130.82 | – | – | 234.35 | CCCCCCCCCCCCN(CCO)CCCCCCCCCCCC(=O)OC [Compound 137, Methyl 12-(dodecyl(2-hydroxyethyl)amino)dodecanoate] | 7.57E+04 p/s | 8.09E+04 p/s
7 | 23.38 | – | – | 172.56 | CCCCCCCCCOC(=O)CCCCCCCN(CCO)CCCCCCCC(=O)OCCCCCCCCC [Compound 138, Dinonyl 8,8′-((2-hydroxyethyl)azanediyl)dioctanoate] | 2.72E+05 p/s | 1.19E+06 p/s

The next lines start with the compound.

Row | SMILES | IL-6 [1] | PDI ([3]; nanoparticle composition 50:10:38.5:1.5 mol % (Table 1A)) | Size (nm) ([3]; nanoparticle composition lipid:DSPC:cholesterol:PEG-DMG 50:10:38.5:1.5 mol %, mRNA encoding Luc or hEPO (Table 1A)) | IP-10 [1] | Total flux (p/s) 0.001 mpk Dose [2] | Total flux (p/s) 0.01 mpk Dose [2]
8 | CCCCCCCCCOC(=O)CCCCCCCN(CCCCCCCC(=O)OC(CCCCCCCC)CCCCCCCC)CCCNC(=O)NC [Compound 112, Heptadecan-9-yl 8-((3-(3-methylureido)propyl)(8-(nonyloxy)-8-oxooctyl)amino)octanoate] | – | 0.12 | 85.7 nm | – | – | –
9 | CCCCCCCCC(CCCCCCCC)OC(=O)CCCCCCCN(CCO)CCCCCCCC(=O)OCC1CC1CCCCCC (stereo not drawn) [Compound 28, Heptadecan-9-yl 8-((8-((2-hexylcyclopropyl)methoxy)-8-oxooctyl)(2-hydroxyethyl)amino)octanoate] | – | – | – | 283.13 | 6.73E+05 p/s | 5.56E+06 p/s
10 | CCCCCCCCCN(CCCCCCCC(=O)OC(CCCCCCCC)CCCCCCCC)CCCn1ccnc1 [Compound 8, Heptadecan-9-yl 8-((3-(1H-imidazol-1-yl)propyl)(nonyl)amino)octanoate] | – | – | – | – | 7.81E+05 p/s | 3.32E+06 p/s
11 | CCCCCCCCCOC(=O)CCCCCCCN(CCCCCCCC(=O)OC(CCCCCCCC)CCCCCCCC)C[C@H](C)O [Compound 12, Heptadecan-9-yl (S)-8-((2-hydroxypropyl)(8-(nonyloxy)-8-oxooctyl)amino)octanoate] | – | – | – | – | 8.02E+04 p/s | 8.90E+05 p/s
12 | CCCCCCCCCOC(=O)CCCCCCCN(CCO)CCCCCCCC(=O)OC(CCCC)CCCC [Compound 57, nonan-5-yl 8-((2-hydroxyethyl)(8-(nonyloxy)-8-oxooctyl)amino) octanoate] | – | – | – | – | 1.16E+05 p/s | 2.23E+05 p/s
13 | CCCCCCCCCOC(=O)CCCCCCCN(CCO)CCCCCCCC(=O)OC(CCCCCC)CCCCCCCC (stereo not drawn) [Compound 32, nonyl 8-((2-hydroxyethyl)(8-oxo-8-(pentadecan-7-yloxy)octyl)amino) octanoate] | – | – | – | – | 7.37E+05 p/s | 1.03E+07 p/s
14 | CCCCCCCCC(CCCCCCCC)OC(=O)CCCCCCCN(CCO)CCCCCC [Compound 5, Heptadecan-9-yl 8-(hexyl(2-hydroxyethyl)amino)octanoate] | 94.07 | – | – | 487.16 | 9.84E+05 p/s | 3.55E+06 p/s
15 | CCCCCCCCCOC(=O)CCCCCCCN(CCCO)CCCCCCCC(=O)OC(CCCCCCCC)CCCCCCCC [Compound 19, Heptadecan-9-yl 8-((3-hydroxypropyl)(8-(nonyloxy)-8-oxooctyl)amino) octanoate] | – | – | – | 1468.94 | 3.28E+06 p/s | 2.96E+07 p/s
16 | CCCCCCCCCOC(=O)CCCCCCCN(CCO)CCCCCCCC(=O)OC(CC)CCCCCCCC (stereo not drawn) [Compound 35, nonyl 8-((2-hydroxyethyl)(8-oxo-8-(undecan-3-yloxy)octyl)amino) octanoate] | – | – | – | – | 2.45E+06 p/s | 8.12E+06 p/s
17 | CCCCCCCCCOC(=O)CCCCCCCN(CCO)CCCCCCCC(=O)N(CCCCCCCC)CCCCCCCC [Compound 144, Nonyl 8-((8-(dioctylamino)-8-oxooctyl)(2-hydroxyethyl)amino)octanoate] | 319.46 | – | – | 4220.55 | 2.72E+06 p/s | 2.18E+07 p/s
18 | CCCCCCCCCOC(=O)CCCCCCCN(CCO)CCCCCC(=O)OC(CCCCCCCC)CCCCCCCC [Compound 27, Nonyl 8-((6-(heptadecan-9-yloxy)-6-oxohexyl)(2-hydroxyethyl)amino) octanoate] | 161.07 | – | – | 345.56 | 2.55E+06 p/s | 3.17E+07 p/s
